These results are taken from patent US8486933B2, “Pyrimidine inhibitors of kinase activity” (AbbVie Inc., priority 2009, dated 2013).

Broadly, the IC50 is the point on the concentration scale where inhibition reaches its midpoint.

In this assay the target is T1, human IGF-1R (Homo sapiens, UniProt P08069).
T1 construct: human IGF-1R, amino acids 954-1367 expressed by baculovirus in Sf21 cells; GST (C); purchased Cell Signaling Technology; host or cells: baculovirus in Sf21 cells
T1 sequence (P08069 954-1367): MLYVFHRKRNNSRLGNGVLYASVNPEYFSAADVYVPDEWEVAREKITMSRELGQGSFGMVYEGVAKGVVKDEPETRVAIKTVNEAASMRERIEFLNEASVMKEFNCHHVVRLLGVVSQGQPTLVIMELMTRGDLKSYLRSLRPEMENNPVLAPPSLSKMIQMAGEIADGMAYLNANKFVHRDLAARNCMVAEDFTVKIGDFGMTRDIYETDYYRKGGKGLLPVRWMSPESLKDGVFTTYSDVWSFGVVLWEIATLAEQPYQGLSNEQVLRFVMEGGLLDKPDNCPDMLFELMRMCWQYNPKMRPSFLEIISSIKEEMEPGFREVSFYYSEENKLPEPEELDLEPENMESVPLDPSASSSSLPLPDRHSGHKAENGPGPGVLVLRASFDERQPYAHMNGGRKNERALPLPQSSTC
The assay can be described thus: IGF-1R homogenous time-resolved fluorescence (HTRF) in vitro kinase assay. It is filed as biochemical. The settings on record: recombinant GST-tagged human IGF-1R aa 954-1367; ATP 50 μM; 60 minutes at room temperature. The method, then:
IGF-1R kinase activity was assayed by a homogenous time-resolved fluorescence (HTRF) in vitro kinase assay (Mathis, G., HTRF(R) Technology. J Biomol Screen, 1999. 4(6): p. 309-314). Specifically, 10 μL C-terminal GST-tagged, recombinant, human IGF-1R, amino acids 954-1367 expressed by baculovirus in Sf21 cells (Cell Singaling Technology) was mixed with 10 μL inhibitor (various concentrations, 2% final DMSO) and 10 μL of ATP (50 μM final concentration) in reaction buffer (50 mM HEPES, pH 7.5, 10 mM MgCl2, 2 mM MnCl2, 0.1% BSA and 1 mM DTT, 40 μL final volume). The reaction was initiated by addition of 10 μL of biotinylated peptide substrate (Biotin-Ahx-[…], 0.5 μM final concentration) in a black 384-well plate (Packard). […] The quenched reaction was allowed to stand at room temperature for 1 hour and then read in a time-resolved fluorescence detector (Envision, Perkin Elmer) at 615 nm and 665 nm simultaneously. The ratio between the signal of 615 nm and 665 nm was used in the calculation of the IC50.
(In general: Time-resolved FRET reads energy transfer from a long-lived donor to a nearby acceptor.)
Consider `COc1cc(N2CCC(N(C)C)CC2)ccc1Nc1ncc(Br)c(Nc2cc3cn[nH]c3cc2Cl)n1` [Example 20, 5-bromo-N^4-(6-chloro-1H-indazol-5-yl)-N^2-{4-[4-(dimethylamino)piperidin-1-yl]-2-methoxyphenyl}pyrimidine-2,4-diamine], for which the IC50 is 10 to 50 nM.

`CCN1CCN(c2ccc(Nc3ncc(Br)c(Nc4cccc5oc(C)nc45)n3)cc2)CC1` [Example 15, 5-bromo-N^2-[4-(4-ethylpiperazin-1-yl)phenyl]-N^4-(2-methyl-1,3-benzoxazol-4-yl)pyrimidine-2,4-diamine]: the IC50 was in the range of 101 to 500 nM. As to `COc1cc(N2CCC(N(C)C)CC2)ccc1Nc1ncc(Br)c(Nc2cc3cn[nH]c3cc2C)n1` [Example 21, 5-bromo-N^2-{4-[4-(dimethylamino)piperidin-1-yl]-2-methoxyphenyl}-N^4-(6-methyl-1H-indazol-5-yl)pyrimidine-2,4-diamine], the concentration for half-maximal inhibition (IC50) was 101 to 500 nM. On to `CCS(=O)(=O)c1cc2[nH]ncc2cc1Nc1nc(Nc2ccc(N3CCC(N(C)C)CC3)cc2)ncc1Br` [Example 31, 5-bromo-N^2-{4-[4-(dimethylamino)piperidin-1-yl]phenyl}-N^4-[6-(ethylsulfonyl)-1H-indazol-5-yl]pyrimidine-2,4-diamine], for which the IC50 lay within 10 to 50 nM. `CN(C)C1CCN(c2ccc(Nc3ncc(Br)c(Nc4cc5cnn(C)c5cc4S(C)(=O)=O)n3)cc2)CC1` [Example 37, 5-bromo-N^2-{4-[4-(dimethylamino)piperidin-1-yl]phenyl}-N^4-[1-methyl-6-(methylsulfonyl)-1H-indazol-5-yl]pyrimidine-2,4-diamine]: the IC50 was in the range of 10 to 50 nM.

In the case of `COc1cc(N2CCC(N3CCN(C)CC3)CC2)ccc1Nc1ncc(Br)c(Nc2ccc3nc(-c4ccccc4)ccc3c2)n1` [Example 47, 5-bromo-N^2-{2-methoxy-4-[4-(4-methylpiperazin-1-yl)piperidin-1-yl]phenyl}-N^4-(2-phenylquinolin-6-yl)pyrimidine-2,4-diamine], the IC50 was over 500 nM.

As to `CCN1CCN(c2ccc(Nc3ncc(Br)c(Nc4ccc5[nH]c(Cc6ccccc6)nc5c4)n3)cc2)CC1` [Example 2, N^4-(2-benzyl-1H-benzimidazol-5-yl)-5-bromo-N^2-[4-(4-ethylpiperazin-1-yl)phenyl]pyrimidine-2,4-diamine], the IC50 is over 500 nM. Regarding `COc1cc(N2CCC(N(C)C)CC2)ccc1Nc1ncc(Br)c(Nc2ccc3c(cnn3C)c2)n1` [Example 19, 5-bromo-N^2-{4-[4-(dimethylamino)piperidin-1-yl]-2-methoxyphenyl}-N^4-(1-methyl-1H-indazol-5-yl)pyrimidine-2,4-diamine], the half-maximal inhibitory concentration (IC50) fell in the range of 51 to 100 nM. As for `CCS(=O)(=O)c1cc2[nH]ncc2cc1Nc1nc(Nc2ccc(N3CCOCC3)cc2OC)ncc1Br` [Example 32, 5-bromo-N^4-[6-(ethylsulfonyl)-1H-indazol-5-yl]-N^2-(2-methoxy-4-morpholin-4-ylphenyl)pyrimidine-2,4-diamine], the IC50 was 10 to 50 nM.

Regarding `COc1cc(N2CCC(N3CCN(C)CC3)CC2)ccc1Nc1ncc(Br)c(Nc2ccc3cccnc3c2)n1` [Example 50, 5-bromo-N^2-{2-methoxy-4-[4-(4-methylpiperazin-1-yl)piperidin-1-yl]phenyl}-N^4-quinolin-7-ylpyrimidine-2,4-diamine], the half-inhibitory concentration (IC50) fell in the range of 10 to 50 nM.

Consider `CCN1CCN(c2ccc(Nc3ncc(C(F)(F)F)c(Nc4ccc5[nH]ncc5c4)n3)cc2)CC1` [Example 11, N^2-[4-(4-ethylpiperazin-1-yl)phenyl]-N^4-1H-indazol-5-yl-5-(trifluoromethyl)pyrimidine-2,4-diamine], for which the IC50 was 101 to 500 nM. Next, `COc1cc(N2CCC(N(C)C)CC2)ccc1Nc1ncc(Br)c(Nc2ccc3[nH]ncc3c2)n1` [Example 12, 5-bromo-N^2-{4-[4-(dimethylamino)piperidin-1-yl]-2-methoxyphenyl}-N^4-1H-indazol-5-ylpyrimidine-2,4-diamine]: 10 to 50 nM.
